The subject of assay [1] is MAPKs (ERK, JNK subunit). Kind of assay: Activation of MAPKs signaling in BMDMs. The assay is classed as cell-based, mouse. To be noted: BMDMs, 0, 25, 50, 100 μg/mL, 30 min. As for the experimental part: (§1) Mouse bone marrow-derived macrophages (BMDMs) were inoculated into a 6-well plate and cultured without serum for 16 h. For the detection of MAPKs and NF-κB, BMDMs were incubated with different concentrations of Ot-WHP (0, 25, 50, 100 μg/mL) for 30 min. For the detection of TGF-β/Smad signaling pathway, BMDMs were incubated with different concentrations of Ot-WHP (0, 25, 50, 100 μg/mL) for 24 h, or BMDMs were incubated with 100 μg/mL Ot-WHP, with or without TGF-β1 antibody.

For assay [2], the system named is HaCat. In words: Keratinocyte proliferation, co-incubation with THP-1 derived macrophages (CCK-8). The conditions noted are these: HaCat with THP-1 derived macrophages, 25, 50, 100 μg/mL, 24 h. The format is cell-based. How it is done: HaCat was co-incubated with THP-1 derived macrophages, and mouse fibroblasts were co-incubated with mouse macrophages BMDMs. HaCat (1×10^5 cells/well) or mouse fibroblasts (1×10^5 cells/well) were inoculated into a 24-well plate (lower chamber) one day in advance. After adherence, corresponding macrophages (1×10^5 cells/well, 100 μL) and different concentrations of Ot-WHP (25, 50, 100 μg/mL) or Vehicle (PBS, control) were added to the co-incubation chamber (upper chamber). After HaCat was co-incubated with THP-1-derived macrophages for 24 h, and the fibroblasts were co-incubated with mouse macrophages BMDMs for 72 h, the co-incubated upper chamber was discarded, and the cell activity in the lower chamber was detected by CCK-8.

Assay [3] relates to mouse neutrophils. In words: Transwell migration in co-incubation system with BMDMs in lower chamber. The assay is classed as cell-based. To be noted: 25-100 μg/mL, 8 h. As for the experimental part:
In a co-incubation system, mouse bone marrow-derived macrophages (BMDMs, 4×10^6 cells/mL, 500 μL) resuspended in RPMI 1640 medium containing 2% FBS were plated in the lower chamber (24-well plate) of the co-incubation chamber. After adherence, the prepared mouse neutrophils (7×10^6 cells/mL, 100 μL) or bone marrow-derived macrophages (BMDMs, 7×10^6 cells/mL, 100 μL) were added to the Transwell chamber with a pore size of 3.0 μm (upper chamber, 24-well plate). Then 500 μL of Ot-WHP (25, 50, 100 μg/mL, dissolved in RPMI 1640 medium containing 2% FBS) or the culture medium (control) was added to the lower chamber, and then cultured in a cell incubator at 37° C. for 8 h. The cells in the upper chamber were collected and counted with a hemocytometer. The reduced cells in the upper chamber are the migrated cells

In assay [4] the test system is mouse skin wounds. In words: Skin wound healing in mice (8 mm biopsy punch wound on the back). The assay is classed as in vivo, BALB/c mice. To be noted: 20 μL, 200 μg/mL dripped into wound once a day for 8 days; days 2, 4, 6, 8 after operation; vs PBS. As for the experimental part: Experimental animals BALB/c mice, female, 6-8 weeks old, weighed 18-20 g, were purchased from Shanghai Slac Animal Co., Ltd. The mice were anesthetized by intraperitoneal injection of 2% sodium pentobarbital (0.1 mL/20 g), and the back was shaved with an electric razor and disinfected with iodophor. A hole was punched in the exposed back by a biopsy punch having a diameter of 8 mm. After the operation, the mice were kept in separate cages until the end of the experiment. The mice were randomly divided into 6 groups having 5 animals in each group, including a negative control group (20 μL PBS), a natural Ot-WHP group (20 μL, 200 μg/mL), a synthetic Ot-WHP group (20 μL, 200 μg/mL), a scrambled Ot-WHP group (SEQ ID NO:2, 20 μL, 200 μg/mL), an AH90 positive polypeptide control group (20 μL, 200 μg/mL), and an EGF growth factor control group (20 μL, 100 μg/mL). The drugs were dripped into corresponding wounds in mice once a day for 8 days.
FIGS. 3A1-A4 show the wound healing rate of mice in different experimental groups at 2, 4, 6, and 8 days after surgery. In the figures, Vehicle represents the negative control group; synthetic Ot-WHP represents the synthetic Ot-WHP group; Natural Ot-WHP represents the natural Ot-WHP group; and Scrambled Ot-WHP represents the scrambled Ot-WHP group.

For assay [5], the system named is mouse fibroblasts. In words: Fibroblast proliferation, direct (CCK-8). The format is cell-based. To be noted: mouse fibroblasts, 25, 50, 100 μg/mL, 72 h. How it is done:
(§2) Keratinocytes HaCat and mouse fibroblasts (5×10^3 cells/well, 100 μL/well) were inoculated into a 96-well plate, and incubated with different concentrations of Ot-WHP (25, 50, and 100 μg/mL). PBS was used as a control. After HaCat was incubated with Ot-WHP for 24 h, and the fibroblasts were incubated with Ot-WHP for 72 h, 10 μl of Cell Counting Kit-8 (CCK-8) solution was added to each well, and incubated for another 2-4 h at 37° C. The absorbency at 450 nm was detected on a microplate reader.

Assay [6] relates to Keratinocytes HaCat. Kind of assay: Keratinocyte proliferation, direct (CCK-8). The assay is classed as cell-based. To be noted: HaCat, 25, 50, 100 μg/mL, 24 h. As for the experimental part:
as §2

Assay [7] relates to mouse bone marrow-derived macrophages (BMDMs). Kind of assay: Chemokine and cytokine production in BMDM supernatant. The format is cell-based. The conditions noted are these: 25, 50, 100 μg/mL, 24 h, vs PBS. How it is done:
To clarify why Ot-WHP can cause the migration of neutrophils and macrophages in the coexistence of macrophages, mouse bone marrow-derived macrophages (BMDMs, 5×10^5 cells/well, DMEM medium, 2% FBS) were plated in a 24-well plate, Ot-WHP (25, 50, 100 μg/mL) or an equal volume of PBS (Vehicle) were added, and cultured for 24 h. The supernatant was collected, and centrifuged at 10000×g for 10 min. The chemokines and cytokines were determined.

Assay [8] concerns fibroblasts. In words: Collagen in fibroblast supernatant by ELISA, direct. The assay is classed as cell-based, mouse. To be noted: fibroblasts alone. As for the experimental part:
as §2
The method was the same as that in Example 8. The fibroblasts treated in Example 8 were lysed with RIPA cell lysis solution. The protein was extracted, and the expression of α-SMA was detected by Western blot. A higher expression level of α-SMA means a higher transformation of fibroblasts into […]. The supernatant of the fibroblasts treated in Example 8 was collected, and the production of collagen in the supernatant was quantitatively detected with an ELISA kit.
(An ELISA detects its analyte on a solid surface through an enzyme-linked reagent.)

Assay [9] has as its system Smad (Smad2, Smad3). In words: Activation of TGF-β/Smad signaling in BMDMs. The assay is classed as cell-based, mouse. As for the experimental part: as §1
Assay [10] concerns NF-κB (IκBα, p65 subunit). In words: Activation of NF-κB signaling in BMDMs. To be noted: BMDMs, 0, 25, 50, 100 μg/mL, 30 min. The format is cell-based, mouse. How it is done:
as §1

On to “Ot-WHP: immunomodulating peptide of 24 amino acids from concave-eared torrent frog skin, sequence ATAWDLGPHGIRPLRPIRIRPLCG (SEQ ID NO:1); natural (purified) or chemically synthesized (Ot-WHP Peptide; listed as Odorrana tormota)”, for which the “activation of MAPKs (ERK, JNK subunit) signaling pathway” value in assay [1] was “activates”. Also, in assay [2], the “proliferation of keratinocytes when macrophages coexist” value is recorded as “can promote the proliferation”. For the same substance, the “migration of neutrophils when macrophages coexist” value in assay [3] is “significantly causes the migration”. For the same substance, the “healing of mouse skin wounds (wound healing rate)” value in assay [4] was “significantly promote the healing of mouse skin wounds with an effect comparable to AH90 and EGF”. Moreover, the “proliferation of fibroblasts, direct” value in [5] is “cannot directly promote the proliferation”. The “proliferation of keratinocytes, direct” value in assay [6] was “cannot directly promote the proliferation”. For the same substance, in [7], the “CCL2 production in BMDMs” value is given as “induces mouse BMDMs to produce”, the “CXCL1 production in BMDMs” value is recorded as “induces mouse BMDMs to produce”, the “CXCL2 production in BMDMs” value was “induces mouse BMDMs to produce” and the “CXCL3 production in BMDMs” value is recorded as “induces mouse BMDMs to produce”. For the same substance, in [7], the “IL-1β production in BMDMs” value is “induces mouse BMDMs to produce”, the “IL-6 production in BMDMs” value was “induces mouse BMDMs to produce”, the “TGF-β1 production in BMDMs” value was “induces mouse BMDMs to produce” and the “TNF-α production in BMDMs” value is “induces mouse BMDMs to produce”. Also, in assay [8], the “collagen production by fibroblasts, direct” value was “no direct effect on the collagen production by fibroblasts”. Further, in assay [9] (BMDMs, 0, 25, 50, 100 μg/mL, 24 h), the “activation of Smad (Smad2, Smad3) signaling pathway” value is reported as “activates”. Besides, the “dependence of Smad activation on TGF-β” value in assay [9] (BMDMs, 100 μg/mL, with or without TGF-β1 antibody) is “dependent on the production of TGF-β induced by Ot-WHP”. Besides, the “activation of NF-κB (IκBα, p65 subunit) signaling pathway” value in assay [10] is reported as “activates”.

The values are drawn from patent US11884706B2, “Immunomodulating peptide derived from concave-eared torrent frog and use thereof” (priority 2019, dated 2024).
